Test results taken from US6479501B2 (priority 1996, dated 2002).
Where a name gives a salt, the structure may show the parent alone. Read-outs that look alike come from different tables or passages of the source.

Legend:
Monoamine Oxidase A = molecular target: T1, Monoamine Oxidase A (Rattus norvegicus, UniProt P21396); assay: in vitro inhibition of monoamine oxidase assay, monoamine oxidase-A; format: biochemical, Male Wistar rats; details: rat brain mitochondrial monoamine oxidase; substrate [3H]-5-hydroxytryptamine 200 μM; 30 minutes at 37° C.
T1 construct: serves as the tissue source for mitochondrial monoamine oxidase; from tissue; host or cells: rat whole brain minus cerebellum, P2 mitochondrial pellet
T1 sequence (P21396 1-526): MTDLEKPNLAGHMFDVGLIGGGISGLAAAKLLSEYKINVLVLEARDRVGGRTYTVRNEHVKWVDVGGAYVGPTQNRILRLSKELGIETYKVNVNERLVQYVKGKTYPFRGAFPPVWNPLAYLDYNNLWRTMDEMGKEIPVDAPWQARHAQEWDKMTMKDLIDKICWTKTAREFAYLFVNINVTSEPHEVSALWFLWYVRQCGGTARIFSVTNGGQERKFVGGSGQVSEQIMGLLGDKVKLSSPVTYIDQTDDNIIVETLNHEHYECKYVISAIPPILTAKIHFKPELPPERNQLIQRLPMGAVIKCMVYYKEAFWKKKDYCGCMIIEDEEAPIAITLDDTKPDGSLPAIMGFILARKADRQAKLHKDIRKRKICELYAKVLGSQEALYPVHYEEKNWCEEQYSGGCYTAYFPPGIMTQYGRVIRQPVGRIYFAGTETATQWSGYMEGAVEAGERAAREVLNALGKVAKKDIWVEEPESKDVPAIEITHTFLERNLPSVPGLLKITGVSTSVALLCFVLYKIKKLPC
Description: In this assay, a modification of an assay described by M. V. Kindt, et al., Europ. J. Pharmnacol. 146: 313-318 1988.
1. Phosphate buffer (0.5 M), pH 7.4; 134.4 g dibasic sodium phosphate heptahydrate q.s. to 1 liter in distilled water (A) 17.3 g monobasic sodium phosphate q.s. to 250 ml in distilled water (B) Adjust pH of A to 7.4 by slowly adding B (volumes as needed) Dilute 1:10 in distilled water (0.05 M phosphate buffer, pH 7.4) 2. 0.25 M Sucrose (phosphate buffered): 21.4 g sucrose, q.s. to 250 nil with 0.05 M phosphate buffer a. serotonin creatine sulphate (5-hydroxytryptamine) is obtained from Sigma Chemical Company. A 5 mM stock solution ig made up in 0.01 N-hydrochloric acid. The solution is used to dilute the specific activity of the [^3H]-hydroxytryptamine. […]
b. [^3H]-5-hydroxytryptamine binoxalate (20-30 Ci/mmol) is obtained from New England Nuclear. c. Add 12 μl of [^3H]-5-hydroxytryptamine to 2 ml of the 5 mM 5-hydroxytryptamine solution. (Final amine concentration in the assay is 200 μM: see below.)
5. Equal amounts of monoamine oxidase-A (5-hydroxyttyptamine) and monoamine oxidase-B (β-phenethylamine) substrates are combined for simultaneously testing both monoamine oxidase types, i.e., mixed stock solution of 2.5 mM 5-hydroxytryptamine and 2.5 mM β-phenethylamine. 40 μl of this mixed solution gives a 200 μM final concentration of each amine in the assay. When testing only one monoamine oxidase type, the individual 5 mM stock solutions must be diluted 1:1 with distilled water prior to adding 40 μl to the incubation mixture; i.e., same 200 μM final amine concentration.
6. Stock solutions of test drugs are made up in appropriate vehicles and serially diluted to give final concentrations ranging from 10^−7 to 10^−3 molar in the assay. […]
Tubes are preincubated for 15 minutes at 37° C. and the assay is started by adding 40 μl of combined substrate ([^3H]-5-hydroxytryptamine and [^14C]-β-phenethylamin) at 15 second intervals. […] Tissue blank values are determined by adding the acid before the radioactive substrate. […] IC50 values are determined by log-probit analysis.

Monoamine Oxidase B = molecular target: T2, Monoamine Oxidase B (Rattus norvegicus, UniProt P19643); assay: in vitro inhibition of monoamine oxidase assay, monoamine oxidase-B; format: biochemical, Male Wistar rats; details: rat brain mitochondrial monoamine oxidase; substrate [14C]-β-phenethylamine 200 μM; 30 minutes at 37° C.
T2 construct: serves as the tissue source for mitochondrial monoamine oxidase; from tissue; host or cells: rat whole brain minus cerebellum, P2 mitochondrial pellet
T2 sequence (P19643 1-520): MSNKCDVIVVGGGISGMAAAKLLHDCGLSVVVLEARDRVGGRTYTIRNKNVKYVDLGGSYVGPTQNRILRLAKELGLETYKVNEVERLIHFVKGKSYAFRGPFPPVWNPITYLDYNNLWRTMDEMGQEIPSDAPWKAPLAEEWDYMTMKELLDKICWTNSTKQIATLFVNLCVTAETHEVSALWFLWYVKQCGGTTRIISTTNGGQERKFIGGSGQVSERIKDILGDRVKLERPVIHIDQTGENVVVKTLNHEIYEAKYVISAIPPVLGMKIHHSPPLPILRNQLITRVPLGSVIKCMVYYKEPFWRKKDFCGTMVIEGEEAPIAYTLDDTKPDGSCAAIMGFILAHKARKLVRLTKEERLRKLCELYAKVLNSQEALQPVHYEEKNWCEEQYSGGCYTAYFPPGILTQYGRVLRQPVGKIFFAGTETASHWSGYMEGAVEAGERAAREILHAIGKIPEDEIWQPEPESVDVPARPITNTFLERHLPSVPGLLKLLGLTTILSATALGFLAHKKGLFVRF
Description: Phosphate buffer (0.5 M), pH 7.4; 134.4 g dibasic sodium phosphate heptahydrate q.s. to 1 liter in distilled water (A) 17.3 g monobasic sodium phosphate q.s. to 250 ml in distilled water (B) Adjust pH of A to 7.4 by slowly adding B (volumes as needed) Dilute 1:10 in distilled water (0.05 M phosphate buffer, pH 7.4) 2. 0.25 M Sucrose (phosphate buffered): 21.4 g sucrose, q.s. to 250 nil with 0.05 M phosphate buffer a. β-phenethylamine is obtained from Sigma Chemical Company. A 5 mM stock solution is made up in 0.01 N-hydrochloric acid. The solution is used to dilute the specific activity of the [^14C]-β-phenethylamine.
b. β-[ethyl-1-^14C]-phenethylamine hydrochloride (40-50 mCi/mmol) is obtained from New England Nuclear. c. Add 12 μl of [^14C]-β-phenothylaamine to 2 ml of the 5 mM β-phenethylamine solution. (Final amine concentration in the assay is 200 μM: see below.) […]

Acetylcholinesterase = molecular target: T3, Acetylcholinesterase (Rattus norvegicus, UniProt P37136); assay: biochemical; set-up: species or system Male Wistar rats
T3 construct: corpora striata dissected free, weighted and homogenized in 19 volumes; from tissue; host or cells: rat corpus striatum homogenate
T3 sequence (P37136 32-614): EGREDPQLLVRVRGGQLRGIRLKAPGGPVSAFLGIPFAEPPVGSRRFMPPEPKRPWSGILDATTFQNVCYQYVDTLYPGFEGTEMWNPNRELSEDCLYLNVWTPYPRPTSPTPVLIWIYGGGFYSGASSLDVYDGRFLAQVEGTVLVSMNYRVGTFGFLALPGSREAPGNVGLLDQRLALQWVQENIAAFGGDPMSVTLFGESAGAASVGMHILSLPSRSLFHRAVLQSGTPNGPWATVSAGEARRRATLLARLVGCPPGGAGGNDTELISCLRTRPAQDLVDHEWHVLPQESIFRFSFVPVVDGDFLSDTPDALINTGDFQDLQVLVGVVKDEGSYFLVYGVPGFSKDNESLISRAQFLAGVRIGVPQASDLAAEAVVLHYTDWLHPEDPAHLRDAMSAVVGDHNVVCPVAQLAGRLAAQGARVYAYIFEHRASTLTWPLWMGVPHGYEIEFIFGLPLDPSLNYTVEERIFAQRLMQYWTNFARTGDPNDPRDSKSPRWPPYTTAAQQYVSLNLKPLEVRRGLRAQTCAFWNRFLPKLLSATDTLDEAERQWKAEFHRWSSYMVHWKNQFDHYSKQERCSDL

SMILES | IC50 (Monoamine Oxidase A) | IC50 (Acetylcholinesterase) | also measured
COc1ccc(NN=C2CCCC23CCNCC3)cc1 [8-Azaspiror4,5]decane-1-[N′-(4-methoxy)phenyl]hydrazone hydrochloride] | 37.2 µM |  | IC50 (Monoamine Oxidase B): 3.7 µM
COc1ccc(CN2CCC3(CCc4c3n(C)c3ccccc43)CC2)cc1 [1,4-Dihydro-1′-(4-methoxyphenyl)methyl-4-methylspiro[cyclopent[b]indole-3(2H), 4′-piperidine]] | 98.6 µM |  | IC50 (Monoamine Oxidase B): 125 µM; IC50 (Acetylcholinesterase; read-out: Inhibition of Acetylcholinesterase Activity IC50): 65.2 µM
Cn1c2c(c3cc(O)ccc31)CCC21CCN(Cc2ccccc2)CC1 [1,4-Dihydro-7-hydroxy-4-methyl-1′-phenylmethylspiro[cyclopent[b]indole-3(2H), 4′-piperidine hydrochloride] |  | 20.4 µM | 
Cn1c2c(c3ccccc31)CCC21CCNCC1 [1,4-Dihydro-4-methylspiro[cyclopent[b]indole-3(2H), 4′-piperidine]hydrochloride] |  | 84.1 µM | 
COc1ccc(NN=C2CCCC23CCNCC3)cc1 (as salt: hydrochloride) [8-Azaspiror4,5]decane-1-[N′-(4-methoxy)phenyl]hydrazone hydrochloride] |  |  | melting point: 252 to 253 °C
COc1cccc(CN2CCC3(CCc4c3n(C)c3ccccc43)CC2)c1 [1,4-Dihydro-1′-(3-methoxyphenyl)methyl-4-methylspiro[cyclopent[b]indole-3(2H), 4′piperidine]] | 51.2 µM |  | 
CN(C)C(=O)Oc1ccc2c(c1)c1c(n2C)C2(CCNCC2)CC1 [1,4-Dihydro-7-dimethylaminocarbonyloxy-4-methylspirorcyclopentfblindole-3(2H), 4′-piperidine]hemihydrate] |  | 64 µM | 
